Source: patent US8906351B2, “2,2′-furoin derivatives and use thereof to light skin” (Merck Patent GmbH, priority 2010, dated 2014)

Tests used:
[1] = system: B16V mouse melanoma cells; assay: B16V mouse melanoma cell test, melanin content after alpha-MSH stimulation; format: cell-based; details: DMSO blank = 100, DMSO + alpha-MSH = 235
Protocol: B16V mouse melanoma cells (manufacturer: DSMZ; Article No.: ACC370) are transferred into RPMI medium (Invitrogen, Article No.: 31870), to which 10% of FBS (foetal bovine serum; Invitrogen, Article No.: 10499044), 2 mM L-glutamine (Invitrogen, Article No: 25030) and 1 mM sodium pyruvate (Invitrogen, Article No.: 11360) had additionally been added, and incubated at 37° C. and 5% CO2 for 72 h. The medium is separated off, and the cells are washed once with 10 ml of DPBS (Dulbecco's phosphate-buffered salines; Invitrogen, Article No.: 14190), and the medium is subsequently removed by suction. 1 ml of HyQtase cell detachment solution (Hyclone, Article No.: SV30030.01) is added to the cells. The bottle is swirled a number of times, and the HyQtase cell detachment solution is subsequently removed by suction. The cells are then incubated in the incubator at 37° C. and 5% CO2 for 5 min. The cells are taken up in the modified RPMI medium (see above), and the cell count is determined. To this end, the cells are stained with Trypan Blue and counted in a Neubauer counting chamber. The cells are subsequently sown out again in the modified RPMI medium (see above) in a defined cell count of 80,000 cells per well (6-well clear plate, TCT, PS (Nunc)).
The cells are incubated at 37° C. and 5% CO2 for 24 h, the medium is then removed. 1980 μl of the substance dilution are subsequently added. […]
After the final incubation period, the medium is removed by suction, and the cells are washed with 1000 μl of DPBS (Invitrogen, Article No.: 14190). […] The cell count is subsequently determined. To this end, the cells are stained with Trypan Blue and counted in a Neubauer counting chamber. […] Four times 200 μl per cup (as quadruple determination) are subsequently pipetted into a 96-well plate (VWR, Article No.: 4100636981), and the absorption at a wavelength of 405 nm is determined (Safire, Tecan). The content of melanin can be determined in this way by means of a calibration line.

[2] = system: normal human epidermal melanocytes (NHEM); assay: Melanogenesis assay with human primary cells; format: cell-based; details: 10 days incubation, DMSO control = 100, concentration not given
Protocol: An ampoule of normal human epidermal melanocytes (NHEM, Promocell) is thawed and divided into further bottles depending on the number of their duplicates. After 2 to 3 weeks, between 750,000 and one million cells are transferred into T25 bottles with 5 ml of full medium. After 24 hours, the medium is removed and replaced by corresponding substance dilutions or controls. The overall duration of the incubation of the various test substances on the cells is 10 days. During these 10 days, the substance dilutions or controls are replaced every 2-3 days. After 10 days, the melanocytes are harvested. 500 μl of trypsin/EDTA is added to the cells and immediately removed again by suction. The cells are subsequently taken up in medium, counted and centrifuged off. The supernatant is removed, the pellet is washed with DPBS and centrifuged again. A photo of this pellet is taken. The pellet is then taken up in 1 ml of NaOH (1 M) and incubated in a shaker at 80° C. for one hour. The solution, cooled to room temperature, is pipetted into a 96-well plate (4×200 μl), and the absorption at 405 nm is measured. The values measured are subsequently plotted in percent against the control.

O=C(c1ccco1)C(O)c1ccco1 (stereo not shown) [2,2′-Furoin, 2,2′-furoin]
Relative melanin content in % ([1]; 0.05 mM + alpha-MSH (10^-8 M)): 88.0%
Relative melanin content in % ([1]; 0.1 mM + alpha-MSH (10^-8 M)): 63.1%
Relative melanin content in % [2]: 72.9%

O=c1cc(CO)occ1O [Kojic acid, reference compound]
Relative melanin content in % ([1]; 1 mM + alpha-MSH (10^-8 M)): 96%
